Assays:
Test in all cases: 3' UTR reporter interaction score (median-centred robust z-score of log2 firefly/Renilla activity); higher = less repression of the 3' UTR reporter
Conditions in all cases: HEK293T; 48 h
[1] = system: MYCN
Method in brief: (§1)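 Using DharmaFECT Duo, HEK293T cells (10,000/well, 96-well plates) were co-transfected with 2.5 pmol miRNA mimic, 100 ng firefly luc2P reporter containing the gene's 3' UTR and 20 ng Renilla pRL-TK control, and dual-luciferase activity was read 48 h later. The interaction score is the log firefly/Renilla ratio as a per-plate robust z-score (median, median absolute deviation), median-centred per miRNA, averaged over at least two independent screens; lower, more negative values indicate interaction.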

[2] = system: TP53
Method in brief: as §1

[3] = system: MYT1L
Method in brief: as §1

[4] = system: FBXW7
Method in brief: as §1

[5] = system: ZEB2
Method in brief: as §1

[6] = system: PHOX2B
Method in brief: as §1

[7] = system: BRCA2
Method in brief: as §1

[8] = system: HRAS
Method in brief: as §1

[9] = system: MYC
Method in brief: as §1

[10] = system: NOTCH1
Method in brief: as §1

[11] = system: RB1
Method in brief: as §1

[12] = system: PHF6
Method in brief: as §1

[13] = system: MYB
Method in brief: as §1

[14] = system: EZH2
Method in brief: as §1

Sequence | 3' UTR reporter interaction score [1] | 3' UTR reporter interaction score [2] | 3' UTR reporter interaction score [3] | 3' UTR reporter interaction score [4] | 3' UTR reporter interaction score [5] | 3' UTR reporter interaction score [6] | 3' UTR reporter interaction score [7] | 3' UTR reporter interaction score [8] | 3' UTR reporter interaction score [9] | 3' UTR reporter interaction score [10] | 3' UTR reporter interaction score [11] | 3' UTR reporter interaction score [12] | 3' UTR reporter interaction score [13] | 3' UTR reporter interaction score [14]
CUUUUUGCGGUCUGGGCUUGC | 0.522 | -0.0822 | 1.18 | -2.11 | -2.61 | -0.0143 | -0.285 | 0.493 | 0.829 | -0.155 | -0.184 | -1.29 | 0.803 | 0.547
GAAAACAGCAAUUACCUUUGCA | 0.734 | -0.0426 | -0.261 | 0.0135 | 0.263 | 0.0564 | 0.212 | -0.7 | -0.413 | -1.34 | 0.347 | -0.427 | -1.17 | 0.37
GAACGCCUGUUCUUGCCAGGUGG | -0.325 | -0.416 | -0.992 | -1.79 | 0.419 | -0.674 | 1.57 | 0.54 | 0.431 | 0.125 | 0.00732 | -1.24 | 0.0781 | 1.05
GAAGGCGCUUCCCUUUAGAGC | 0.218 | -0.514 | 0.364 | 0.412 | 0.676 | 1.35 | 0.0383 | -1.63 | -0.899 | -0.268 | 0.388 | 0.189 | 0.182 | -1.42
GAAGGCGCUUCCCUUUGGAGU | -0.406 | -0.237 | 0.212 | 0.348 | 1.47 | 2.09 | 0.864 | -1.8 | -1.08 | -0.115 | 0.389 | 0.395 | -0.216 | -1.48
GAAGUGCUUCGAUUUUGGGGUGU | 0.643 | -1.53 | -0.424 | -0.253 | 0.378 | 0.548 | 0.244 | 0.659 | 0.42 | 0.231 | 2.22 | 0.808 | 0.012 | -0.43
GAAGUGUGCCGUGGUGUGUCU | -0.199 | 0.832 | -1.67 | 1.69 | -0.231 | 1.74 | -0.0229 | -0.384 | -0.0876 | -0.516 | 0.538 | -0.942 | -0.373 | -0.113
GAAGUUGUUCGUGGUGGAUUCG | -0.332 | -1.17 | -1.32 | -1.37 | 0.478 | -0.358 | 0.514 | 0.113 | 0.185 | 0.409 | 1.05 | -0.491 | 0.448 | -2.16
GACACGGGCGACAGCUGCGGCCC | -0.202 | 0.243 | -0.281 | -0.302 | 0.917 | -0.471 | -0.257 | 0.13 | -0.271 | -0.641 | 1.37 | 1.16 | 0.262 | -0.294
